Tests used:
lambsquarters = assay: Test C pre-/postemergence herbicide test; type: in vivo, Chenopodium album
How it was run: (§1)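 Test compounds, formulated in a surfactant-containing non-phytotoxic solvent blend, are applied to seeded loam/sand soil (preemergence) and to young plants at the 1- to 4-leaf stage in peat-based medium (postemergence). Plants stay 13 to 15 days under greenhouse conditions, then are scored visually relative to controls, 0 = no effect, 100 = complete control.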

chickweed = assay: Test C postemergence herbicide test; type: in vivo, Stellaria media
How it was run: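 Greenhouse pot plants at 2 to 18 cm height (1- to 4-leaf stage) received a postemergence application of formulated test chemical. Visual ratings against untreated controls were made after 13 to 15 days, on a 0 (no effect) to 100 (complete control) scale.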

pigweed = assay: Test C pre-/postemergence herbicide test; type: in vivo, Amaranthus retroflexus
How it was run: as §1

wheat (winter wheat) = assay: Test C pre-/postemergence herbicide test; type: in vivo, Triticum aestivum
How it was run: as §1

velvetleaf = assay: Test C pre-/postemergence herbicide test; type: in vivo, Abutilon theophrasti
How it was run: as §1

ragweed = assay: Test A pre-/postemergence herbicide test; type: in vivo, Ambrosia elatior; conditions: for Plant response rating, Ragweed: 0 to 100 scale
How it was run: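 Planted in loam–sand blend; treated the same day preemergence by directed soil spray, while separately grown plants at one- to two-leaf stage got postemergence spray. Compared visually with untreated controls after approximately 10 days; 100 means complete control.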

rice = assay: Test C flooded paddy test; type: in vivo, Oryza sativa; conditions: Flood
How it was run: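 Plants grown to the 2-leaf stage; pots flooded to 3 cm above soil and compound applied directly into the paddy water, depth kept throughout. Greenhouse 13 to 15 days, then visual rating vs untreated controls on 0–100 scale (0 no effect, 100 complete control); dash means no result.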

crabgrass, large = assay: Test C pre-/postemergence herbicide test; type: in vivo, Digitaria sanguinalis
How it was run: as §1

[1] = Postemergence, 31 g ai/ha, scale 0 to 100 (0 no effect, 100 complete control)
[2] = Postemergence, 62 g ai/ha, scale 0 (no effect) to 100 (complete control)
[3] = Postemergence, 125 g ai/ha, scale 0 to 100 (0 no effect, 100 complete control)
[4] = Postemergence, 250 g ai/ha, scale 0 to 100 (0 no effect, 100 complete control)
[5] = Preemergence, 31 g ai/ha, scale 0 to 100, 0 is no effect and 100 is complete control
[6] = Preemergence, 62 g ai/ha, scale 0 to 100 (0 no effect, 100 complete control)
[7] = Preemergence, 125 g ai/ha, scale 0 to 100 (0 no effect, 100 complete control)
[8] = 31 g ai/ha, scale 0 to 100 (0 no effect, 100 complete control)
[9] = 62 g ai/ha, scale 0 (no effect) to 100 (complete control)
[10] = 125 g ai/ha, scale 0 to 100 (0 no effect, 100 complete control)
[11] = 250 g ai/ha, scale 0 to 100 (0 no effect, 100 complete control)
[12] = 125 g ai/ha, visual rating, 0 no effect, 100 complete control, approximately 10 days, preemergence
[13] = Postemergence, 125 g ai/ha, 0 is no effect, 100 is complete control
[14] = preemergence, 500 g ai/ha, 0 is no effect and 100 is complete control
[15] = 125 g ai/ha, scale of 0 to 100 where 0 is no effect and 100 is complete control, 13 to 15 days
[16] = 250 g ai/ha, scale of 0 to 100 where 0 is no effect and 100 is complete control, 13 to 15 days

## O=C1NC[C@H](c2cccc(C(F)(F)F)c2)[C@H]1C(=O)Nc1ccccc1F [Compound 204, (3R,4S)—N-(2-fluorophenyl)-2-oxo-4-[3-(trifluoromethyl)phenyl]-3-pyrrolidinecarboxamide]
lambsquarters; [1]
  Plant response rating, Lambsquarters: 35
lambsquarters; [2]
  Plant response rating, Lambsquarters: 65
lambsquarters; [3]
  Plant response rating, Lambsquarters: 75
lambsquarters; [4]
  Plant response rating, Lambsquarters: 30
lambsquarters; [5]
  Lambsquarters plant response rating: 100
lambsquarters; [6]
  Lambsquarters plant response rating: 100
lambsquarters; [7]
  Plant response rating, Lambsquarters: 75
lambsquarters; Preemergence, 250 g ai/ha
  Plant response rating (scale of 0 to 100), Lambsquarters: 100
chickweed; [8]
  Plant response rating, Chickweed: 0
chickweed; [9]
  Plant response rating, Chickweed: 30
chickweed; [10]
  Plant response rating, Chickweed: 55
chickweed; [11]
  Plant response rating, Chickweed: 65
pigweed; [1]
  Plant response rating, Pigweed: 20
pigweed; [2]
  Plant response rating, Pigweed: 10
pigweed; [3]
  Plant response rating, Pigweed: 10
pigweed; [4]
  Plant response rating, Pigweed: 10
pigweed; [5]
  Pigweed plant response rating: 0
pigweed; [6]
  Pigweed plant response rating: 0
pigweed; [7]
  Plant response rating, Pigweed: 0
pigweed; Preemergence, 250 g ai/ha
  Plant response rating (scale of 0 to 100), Pigweed: 75
Wheat (winter wheat); [1]
  Plant response rating, Wheat: 0
Wheat (winter wheat); [2]
  Plant response rating, Wheat: 0
Wheat (winter wheat); [3]
  Plant response rating, Wheat: 0
Wheat (winter wheat); [4]
  Plant response rating, Wheat: 0
Wheat (winter wheat); [5]
  Wheat plant response rating: 0
Wheat (winter wheat); [6]
  Wheat plant response rating: 70
Wheat (winter wheat); [7]
  Plant response rating, Wheat: 80
Wheat (winter wheat); Preemergence, 250 g ai/ha
  Plant response rating (scale of 0 to 100), Wheat: 90
velvetleaf; [1]
  Plant response rating, Velvetleaf: 0
velvetleaf; [2]
  Plant response rating, Velvetleaf: 0
velvetleaf; [3]
  Plant response rating, Velvetleaf: 0
velvetleaf; [4]
  Plant response rating, Velvetleaf: 10
velvetleaf; [5]
  Velvetleaf plant response rating: 0
velvetleaf; [6]
  Velvetleaf plant response rating: 0
velvetleaf; [7]
  Plant response rating, Velvetleaf: 0
velvetleaf; Preemergence, 250 g ai/ha
  Plant response rating (scale of 0 to 100), Velvetleaf: 30
ragweed; [12]
  Plant response rating, Ragweed: 0
ragweed; [13]
  Plant response rating, Ragweed: 0
ragweed; Postemergence, 500 g ai/ha
  Ragweed plant response rating (0 to 100 scale, 0 is no effect, 100 is complete control): 0
ragweed; [14]
  Plant response rating, Ragweed: 80
rice; [15]
  Plant response rating, Rice: 0
rice; [16]
  Plant response rating, Rice: 0
rice; 500 g ai/ha, scale 0 to 100
  Plant response rating, Rice: 0
rice; 1000 g ai/ha, scale 0 to 100
  Plant response rating, Rice: 10
crabgrass, large; [1]
  Plant response rating, Crabgrass, Large: 0
crabgrass, large; [2]
  Plant response rating, Crabgrass, Large: 50
crabgrass, large; [3]
  Plant response rating, Crabgrass, Large: 70
crabgrass, large; [4]
  Plant response rating, Crabgrass, Large: 80
crabgrass, large; [5]
  Crabgrass, Large plant response rating: 90
crabgrass, large; [6]
  Crabgrass, Large plant response rating: 90
crabgrass, large; [7]
  Plant response rating, Crabgrass, Large: 100
crabgrass, large; Preemergence, 250 g ai/ha
  Plant response rating (scale of 0 to 100), Crabgrass, Large: 95

## O=C1NC[C@H](c2cccc(C(F)(F)F)c2)[C@H]1C(=O)Nc1cccc(F)c1F [Compound 206]
lambsquarters; [1]
  Plant response rating, Lambsquarters: 50
lambsquarters; [2]
  Plant response rating, Lambsquarters: 75
lambsquarters; [3]
  Plant response rating, Lambsquarters: 10
lambsquarters; [4]
  Plant response rating, Lambsquarters: 20
lambsquarters; [5]
  Lambsquarters plant response rating: 75
lambsquarters; [6]
  Lambsquarters plant response rating: 100
lambsquarters; [7]
  Plant response rating, Lambsquarters: 100
lambsquarters; Preemergence, 250 g ai/ha
  Plant response rating (scale of 0 to 100), Lambsquarters: 100
chickweed; [8]
  Plant response rating, Chickweed: 85
chickweed; [9]
  Plant response rating, Chickweed: 60
chickweed; [10]
  Plant response rating, Chickweed: 85
chickweed; [11]
  Plant response rating, Chickweed: 85
pigweed; [1]
  Plant response rating, Pigweed: 30
pigweed; [2]
  Plant response rating, Pigweed: 40
pigweed; [3]
  Plant response rating, Pigweed: 50
pigweed; [4]
  Plant response rating, Pigweed: 30
pigweed; [5]
  Pigweed plant response rating: 70
pigweed; [6]
  Pigweed plant response rating: 100
pigweed; [7]
  Plant response rating, Pigweed: 100
pigweed; Preemergence, 250 g ai/ha
  Plant response rating (scale of 0 to 100), Pigweed: 85
Wheat (winter wheat); [1]
  Plant response rating, Wheat: 0
Wheat (winter wheat); [2]
  Plant response rating, Wheat: 0
Wheat (winter wheat); [3]
  Plant response rating, Wheat: 30
Wheat (winter wheat); [4]
  Plant response rating, Wheat: 45
Wheat (winter wheat); [5]
  Wheat plant response rating: 35
Wheat (winter wheat); [6]
  Wheat plant response rating: 40
Wheat (winter wheat); [7]
  Plant response rating, Wheat: 70
Wheat (winter wheat); Preemergence, 250 g ai/ha
  Plant response rating (scale of 0 to 100), Wheat: 70
velvetleaf; [1]
  Plant response rating, Velvetleaf: 0
velvetleaf; [2]
  Plant response rating, Velvetleaf: 0
velvetleaf; [3]
  Plant response rating, Velvetleaf: 15
velvetleaf; [4]
  Plant response rating, Velvetleaf: 15
velvetleaf; [5]
  Velvetleaf plant response rating: 0
velvetleaf; [6]
  Velvetleaf plant response rating: 50
velvetleaf; [7]
  Plant response rating, Velvetleaf: 40
velvetleaf; Preemergence, 250 g ai/ha
  Plant response rating (scale of 0 to 100), Velvetleaf: 60
ragweed; [12]
  Plant response rating, Ragweed: 60
ragweed; [13]
  Plant response rating, Ragweed: 0
ragweed; Postemergence, 500 g ai/ha
  Ragweed plant response rating (0 to 100 scale, 0 is no effect, 100 is complete control): 50
ragweed; [14]
  Plant response rating, Ragweed: 70
rice; [15]
  Plant response rating, Rice: 0
rice; [16]
  Plant response rating, Rice: 0
rice; 500 g ai/ha, scale 0 to 100
  Plant response rating, Rice: 15
rice; 1000 g ai/ha, scale 0 to 100
  Plant response rating, Rice: 15
crabgrass, large; [1]
  Plant response rating, Crabgrass, Large: 45
crabgrass, large; [2]
  Plant response rating, Crabgrass, Large: 50
crabgrass, large; [3]
  Plant response rating, Crabgrass, Large: 70
crabgrass, large; [4]
  Plant response rating, Crabgrass, Large: 80
crabgrass, large; [5]
  Crabgrass, Large plant response rating: 90
crabgrass, large; [6]
  Crabgrass, Large plant response rating: 90
crabgrass, large; [7]
  Plant response rating, Crabgrass, Large: 95
crabgrass, large; Preemergence, 250 g ai/ha
  Plant response rating (scale of 0 to 100), Crabgrass, Large: 95
